Data taken from patent US20180250295A1, “Treatment of Motor and Movement Disorder Side Effects Associated with Parkinson's Disease Treatments” (Psychogenics, Inc., priority 2012, published 2018).

Columns and labels:
[1] = system: Parkinson's patients with L-DOPA induced dyskinesias; assay: Levodopa challenge-dose study of oral eltoprazine, dyskinesia ratings (CDRS, Rush DRS); type: in vivo, human; details: for levodopa-induced dyskinesia (LID) measured by the CDRS scale: compared to placebo
Excerpt: (§1) This example describes a multicenter, randomized, double-blind, placebo-controlled, dose finding study of oral eltoprazine in Parkinson's patients with L-DOPA induced dyskinesias, in a levodopa challenge-dose setting in Parkinson's Disease. A total of 22 patients participated in the study, out of which 18 patients fulfilled the protocol in terms of eligibility, interventions, and outcome assessment.
This study also assessed the safety and tolerability of eltoprazine in adults with Parkinson's Disease using the following measures: a) population mean values for the change in dyskinesia ratings between the placebo and screening baseline values and any of the eltoprazine dosages used, calculated as the peak-effect on CDRS of any study medication; b) population mean values for the change in dyskinesia ratings between the placebo and screening baseline values and any of the eltoprazine dosages used, calculated as the AuC on Rush DRS of any study medication; c) any changes in the UPDRS-III total score; d) any change in the diary data set, between the baseline and placebo and any of the three study medication tests; e) any deterioration of the HADS scores after study medication compared with placebo; f) any development of depression over the course of the study period, determined by the Montgomery Asberg Depression Rating Scale (MADRS) and clinical judgment; g) comparison between the effects on Rush Dyskinesia Rating Scale (DRS) and Clinical Dyskinesia Rating Scale (CDRS) Area under the Curve (AuC) and peak of dose effects for the three study medication dosages.
During the first visit, patients underwent screening for inclusion/exclusion criteria and safety assessments. Symptoms of parkinsonism, depression, and anxiety were assessed, and screening for significant L-DOPA dyskinesias were conducted using a challenge dose (150%) of L-DOPA. Subjects who were taking a prohibited medication were required to complete a washout period of appropriate length, as determined by the investigator. […]

dopamine receptors = details: cited from earlier work
5-HT1a receptor = biological target: T1, 5-HT1a receptor (Homo sapiens, UniProt P08908); details: relative to 5-HT1b; cited from earlier work
T1 sequence (P08908 1-422): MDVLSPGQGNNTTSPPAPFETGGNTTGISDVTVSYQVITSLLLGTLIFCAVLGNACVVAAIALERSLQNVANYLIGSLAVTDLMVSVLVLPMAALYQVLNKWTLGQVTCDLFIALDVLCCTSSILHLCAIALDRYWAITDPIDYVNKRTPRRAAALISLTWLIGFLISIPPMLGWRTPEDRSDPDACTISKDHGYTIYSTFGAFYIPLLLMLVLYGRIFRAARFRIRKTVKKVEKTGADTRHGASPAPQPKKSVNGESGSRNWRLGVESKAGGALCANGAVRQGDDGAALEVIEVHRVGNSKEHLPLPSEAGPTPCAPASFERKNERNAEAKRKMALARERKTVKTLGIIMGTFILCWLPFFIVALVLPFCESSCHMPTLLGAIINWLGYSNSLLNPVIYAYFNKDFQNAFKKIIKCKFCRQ

5-HT1 = details: with respect to all receptors other than 5-HT1; cited from earlier work
5-HT1d receptor = details: compared with serotonin; cited from earlier work
[2] = system: Parkinson's patients with L-DOPA induced dyskinesias; assay: Levodopa challenge-dose study, UPDRS-III rating of parkinsonian symptoms (L-DOPA efficacy); type: in vivo, human
Excerpt: as §1, with “assessment. […]” for “assessment.”
During each of five visits, and after a two-hour fast, each patient received a challenge dosage (150%—up to a maximum of 250 mg) of levodopa. […] The patients were periodically recorded for 180 minutes after treatment, and the videos were evaluated in a blinded manner. […]
Filming occurred 30 minutes prior to, and every 30 minutes up to 180 minutes after a challenge test of L-DOPA and study medication. […] Video taped records of each sequence were assessed by separate individual qualified raters at both of the two clinical centers.
Analyses were done on both the intention-to-treat (ITT) and per protocol (PP) population, if applicable. The change between test sessions of the highest observed Unified Parkinson's Disease Rating Scale-III (UPDRS) within each session will be calculated between the randomised placebo test session and each active test session and will be analysed with Wilcoxon Signed Rank test on the ITT population.

5-HT1b receptor = 5-HT1b receptor (Homo sapiens, UniProt P28222); details: relative to 5-HT1a; cited from earlier work
5-HT1b receptor, sequence (P28222 whole entry): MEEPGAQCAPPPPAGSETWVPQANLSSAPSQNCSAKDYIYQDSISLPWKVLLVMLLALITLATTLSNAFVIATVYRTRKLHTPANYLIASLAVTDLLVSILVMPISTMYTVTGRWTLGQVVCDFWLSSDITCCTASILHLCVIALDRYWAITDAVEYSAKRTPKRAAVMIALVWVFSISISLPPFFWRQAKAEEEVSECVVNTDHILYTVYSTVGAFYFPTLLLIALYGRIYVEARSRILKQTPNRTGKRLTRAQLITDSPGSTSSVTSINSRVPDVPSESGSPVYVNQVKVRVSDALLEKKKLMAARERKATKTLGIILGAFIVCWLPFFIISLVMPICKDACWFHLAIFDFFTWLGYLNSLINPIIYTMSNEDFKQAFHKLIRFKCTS

[3] = system: Parkinson's patients with L-DOPA induced dyskinesias; assay: Safety and tolerability of eltoprazine in the levodopa challenge-dose study; type: in vivo, human; details: single oral doses of 2.5 mg, 5 mg, 7.5 mg
Excerpt: as §1, with “assessment. […]” for “assessment.”

## c1cc2c(c(N3CCNCC3)c1)OCCO2 [eltoprazine, 1-(2,3-dihydro-1,4-benzodioxanyl-5-yl) piperazine]
[1]; 5 mg single oral dose
  LID as measured by the Rush Scale AUC: reduced LID in PD patients statistically significantly
[1]; 5 mg single oral dose, p=0.0007, L-DOPA challenge dose 150%
  levodopa-induced dyskinesia (LID) measured by the CDRS scale: statistically significantly reduced LID
[1]; 7.5 mg single oral dose, p=0.0467, L-DOPA challenge dose 150%
  levodopa-induced dyskinesia (LID) measured by the CDRS scale: statistically significantly reduced LID
Dopamine receptors
  affinity for dopamine receptors: no relevant affinity for dopamine receptors
5-HT1a receptor
  agonism and affinity at the 5-HT1a receptor: mixed 5-HT1a/5-HT1b receptor agonist with roughly equipotent affinity
5-HT1
  binding selectivity: selective 5-HT1 ligand
5-HT1d receptor
  affinity for the 5-HT1d receptor: lower affinity for the 5-HT1d receptor
[2]; 5 mg and 7.5 mg doses
  L-DOPA efficacy as measured by the UPDRS score: did not affect L-DOPA efficacy
[2]; FIG. 2
  change in UPDRS-III of parkinsonian symptoms after eltoprazine administration: no significant change
5-HT1b receptor
  agonism and affinity at the 5-HT1b receptor: mixed 5-HT1a/5-HT1b receptor agonist with roughly equipotent affinity
[3]
  serious adverse events: no serious adverse events
  tolerability: well tolerated
